Measurements as given in US11339161B2, “Triazolo pyridines as modulators of gamma-secretase” (Boehringer Ingelheim International GmbH, priority 2017, dated 2022).
Where two headings read alike, the source gives them in different places.

Experiments:
KDR (VEGFR2) = KDR (VEGFR2) (Homo sapiens, UniProt P35968); assay: Z'-LYTE SelectScreen biochemical kinase assay KDR (VEGFR2)
Text: (§1) Thermo Fisher Scientific SelectScreen™ Biochemical Kinase Profiling Service Z′-LYTE™ Screening Protocol and Assay Conditions Assay Theory
(§2) The […] biochemical assay employs a fluorescence-based, coupled-enzyme format and is based on the differential sensitivity of phosphorylated and non-phosphorylated peptides to proteolytic cleavage. The peptide substrate is labeled with two fluorophores—one at each end—that make up a FRET pair. In the primary reaction, the kinase transfers the gamma-phosphate of ATP to a single tyrosine, serine or threonine residue in a synthetic FRET-peptide. In the secondary reaction, a site-specific protease recognizes and cleaves non-phosphorylated FRET-peptides. Phosphorylation of FRET-peptides suppresses cleavage by the Development Reagent. Cleavage disrupts FRET between the donor (i.e., coumarin) and acceptor (i.e., fluorescein) fluorophores on the FRET-peptide, whereas uncleaved, phosphorylated FRET-peptides maintain FRET. A ratiometric method, which calculates the ratio (Emission Ratio=Coumarin emission (445 nm)/Fluorescein emission (520 nm)) of donor emission to acceptor emission after excitation of the donor fluorophore at 400 nm, is used to quantitate reaction progress, as shown in the equation below. A significant benefit of this ratiometric method for quantitating reaction progress is the elimination of well-to-well variations in FRET-peptide concentration and signal intensities. As a result, the assay yields very high Z′-factor values (>0.7) at a low percent phosphorylation. Both cleaved and uncleaved FRET-peptides contribute to the fluorescence signals and therefore to the Emission Ratio. The extent of phosphorylation of the FRET-peptide can be calculated from the Emission Ratio. The Emission Ratio will remain low if the FRET-peptide is phosphorylated (i.e., no kinase inhibition) and will be high if the FRET-peptide is non-phosphorylated (i.e., kinase inhibition).
(§3) The Test Compounds are screened in 1% DMSO (final) in the well. For 10 point titrations, 3-fold serial dilutions are conducted from the starting concentration of the customer's choosing.
(§4) All Peptide/Kinase Mixtures are diluted to a 2× working concentration in the appropriate Kinase Buffer (see section Kinase Specific Assay Conditions for a complete description).
(§5) All ATP Solutions are diluted to a 4× working concentration in Kinase Buffer (50 mM HEPES pH 7.5, 0.01% BRIJ-35, 10 mM MgCl2, 1 mM EGTA). ATP Km apparent is previously determined using a Z″-LYTE assay.
(§6) The Development Reagent is diluted in Development Buffer (see section Kinase-Specific Assay Conditions—Direct and Cascade for a complete description).
(§7) Bar-coded Corning, low volume NBS, black 384-well plate (Corning Cat. #4514) • 1. 100 nL—100× Test Compound in 100% DMSO • 2. 2.4 μL—Kinase buffer • 3. 5 μL—2× Peptide/Kinase Mixture • 4. 2.5 μL—4×ATP Solution • 5. 30—second plate shake • 6. 60—minute Kinase Reaction incubation at room temperature • 7. 5 μL—Development Reagent Solution • 8. 30—second plate shake • 9. 60—minute Development Reaction incubation at room temperature • 10. Read on fluorescence plate reader and analyze the data Z′-LYTE Assay Controls
(§8) SelectScreen Kinase Profiling Service uses XLfit from IDBS. The dose response curve is curve fit to model number 205 (sigmoidal dose-response model).
The 2×KDR (VEGFR2)/Tyr 01 mixture is prepared in 50 mM HEPES pH 7.5, 0.01% BRIJ-35, 10 mM MgCl2, 1 mM EGTA. The final 10 μL Kinase Reaction consists of 1-30 ng KDR (VEGFR2) and 2 μM Tyr 01 in 50 mM HEPES pH 7.5, 0.01% BRIJ-35, 10 mM MgCl2, 1 mM EGTA. After the 1 hour Kinase Reaction incubation, 5 μL of a 1:256 dilution of Development Reagent B is added.

AURKA (Aurora A) = target: T1, AURKA (Aurora A) (Homo sapiens, UniProt O14965); assay: Z'-LYTE SelectScreen biochemical kinase assay AURKA (Aurora A)
T1 sequence (O14965 1-403): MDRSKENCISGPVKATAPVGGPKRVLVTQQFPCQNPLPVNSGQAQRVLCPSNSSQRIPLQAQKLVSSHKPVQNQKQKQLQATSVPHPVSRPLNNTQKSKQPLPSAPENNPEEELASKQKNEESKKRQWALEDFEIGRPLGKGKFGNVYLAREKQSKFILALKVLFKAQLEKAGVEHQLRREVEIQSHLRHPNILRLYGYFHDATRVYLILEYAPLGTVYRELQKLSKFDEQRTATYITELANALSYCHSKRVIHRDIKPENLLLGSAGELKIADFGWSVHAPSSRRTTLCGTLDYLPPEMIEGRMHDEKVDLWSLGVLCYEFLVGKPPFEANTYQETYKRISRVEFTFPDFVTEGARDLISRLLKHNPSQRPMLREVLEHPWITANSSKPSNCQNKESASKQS
Text: as §1, §2, §3, §4, §5, §6, §7, §8
The 2×AURKA (Aurora A)/Ser/Thr 01 mixture is prepared in 50 mM HEPES pH 7.5, 0.01% BRIJ-35, 10 mM MgCl2, 1 mM EGTA. The final 10 μL Kinase Reaction consists of 0.91-8.56 ng AURKA (Aurora A) and 2 μM Ser/Thr 01 in 50 mM HEPES pH 7.5, 0.01% BRIJ-35, 10 mM MgCl2, 1 mM EGTA. After the 1 hour Kinase Reaction incubation, 5 μL of a 1:4096 dilution of Development Reagent A is added.

MAP4K4 (HGK) = MAP4K4 (HGK) (Homo sapiens, UniProt O95819); assay: Z'-LYTE SelectScreen biochemical kinase assay MAP4K4 (HGK)
Chain of MAP4K4 (HGK) (O95819 whole entry): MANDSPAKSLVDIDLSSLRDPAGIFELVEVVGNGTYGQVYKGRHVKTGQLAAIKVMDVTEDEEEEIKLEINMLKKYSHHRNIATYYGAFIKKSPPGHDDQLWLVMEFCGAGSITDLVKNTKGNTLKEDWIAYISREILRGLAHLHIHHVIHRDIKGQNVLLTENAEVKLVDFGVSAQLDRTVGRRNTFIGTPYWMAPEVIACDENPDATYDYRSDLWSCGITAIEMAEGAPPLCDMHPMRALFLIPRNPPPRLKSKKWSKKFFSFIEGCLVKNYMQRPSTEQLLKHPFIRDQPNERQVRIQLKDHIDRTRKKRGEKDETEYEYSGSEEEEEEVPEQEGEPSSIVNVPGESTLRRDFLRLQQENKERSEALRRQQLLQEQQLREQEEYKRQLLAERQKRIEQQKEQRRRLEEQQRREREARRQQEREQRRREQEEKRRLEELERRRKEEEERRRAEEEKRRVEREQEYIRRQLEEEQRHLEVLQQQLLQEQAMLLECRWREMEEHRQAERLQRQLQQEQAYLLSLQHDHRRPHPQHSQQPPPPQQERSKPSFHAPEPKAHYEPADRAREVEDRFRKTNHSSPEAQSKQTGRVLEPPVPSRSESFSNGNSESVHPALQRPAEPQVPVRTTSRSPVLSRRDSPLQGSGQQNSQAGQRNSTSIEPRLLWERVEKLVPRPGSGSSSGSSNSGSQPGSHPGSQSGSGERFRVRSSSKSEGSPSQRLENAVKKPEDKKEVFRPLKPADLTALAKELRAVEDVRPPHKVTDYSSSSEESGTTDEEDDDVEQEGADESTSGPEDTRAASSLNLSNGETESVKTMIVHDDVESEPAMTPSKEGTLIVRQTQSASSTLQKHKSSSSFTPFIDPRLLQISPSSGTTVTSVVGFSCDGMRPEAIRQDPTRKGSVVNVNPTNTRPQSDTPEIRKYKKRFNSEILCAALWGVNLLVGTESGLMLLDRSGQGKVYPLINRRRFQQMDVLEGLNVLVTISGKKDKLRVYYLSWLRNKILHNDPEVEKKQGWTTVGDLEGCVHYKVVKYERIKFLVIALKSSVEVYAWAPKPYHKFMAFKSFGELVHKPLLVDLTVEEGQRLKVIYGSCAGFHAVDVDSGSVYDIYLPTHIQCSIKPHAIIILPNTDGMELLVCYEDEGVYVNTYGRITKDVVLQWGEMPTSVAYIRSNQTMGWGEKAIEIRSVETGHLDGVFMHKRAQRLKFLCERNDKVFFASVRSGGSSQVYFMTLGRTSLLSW
Text: as §1, §2, §3, §4, §5, §6, §7, §8
The 2×MAP4K4 (HGK)/Ser/Thr 07 mixture is prepared in 50 mM HEPES pH 7.5, 0.01% BRIJ-35, 10 mM MgCl2, 1 mM EGTA. The final 10 μL Kinase Reaction consists of 0.36-1.82 ng MAP4K4 (HGK) and 2 μM Ser/Thr 07 in 50 mM HEPES pH 7.5, 0.01% BRIJ-35, 10 mM MgCl2, 1 mM EGTA. After the 1 hour Kinase Reaction incubation, 5 μL of a 1:45000 dilution of Development Reagent A is added.

[1] = 10 μmolar compound concentration, ATP at Km app, read-out: KDR (VEGFR2) inhibition
[2] = read-out: % Inhibition mean KDR (VEGFR2)
[3] = 10 μmolar compound concentration, ATP at Km app, read-out: AURKA (Aurora A) inhibition
[4] = read-out: % Inhibition mean AURKA (Aurora A)
[5] = 10 μmolar compound concentration, ATP at Km app, read-out: MAP4K4 (HGK) inhibition
[6] = read-out: % Inhibition mean MAP4K4 (HGK)

Chain of KDR (VEGFR2) (P35968 20-1356): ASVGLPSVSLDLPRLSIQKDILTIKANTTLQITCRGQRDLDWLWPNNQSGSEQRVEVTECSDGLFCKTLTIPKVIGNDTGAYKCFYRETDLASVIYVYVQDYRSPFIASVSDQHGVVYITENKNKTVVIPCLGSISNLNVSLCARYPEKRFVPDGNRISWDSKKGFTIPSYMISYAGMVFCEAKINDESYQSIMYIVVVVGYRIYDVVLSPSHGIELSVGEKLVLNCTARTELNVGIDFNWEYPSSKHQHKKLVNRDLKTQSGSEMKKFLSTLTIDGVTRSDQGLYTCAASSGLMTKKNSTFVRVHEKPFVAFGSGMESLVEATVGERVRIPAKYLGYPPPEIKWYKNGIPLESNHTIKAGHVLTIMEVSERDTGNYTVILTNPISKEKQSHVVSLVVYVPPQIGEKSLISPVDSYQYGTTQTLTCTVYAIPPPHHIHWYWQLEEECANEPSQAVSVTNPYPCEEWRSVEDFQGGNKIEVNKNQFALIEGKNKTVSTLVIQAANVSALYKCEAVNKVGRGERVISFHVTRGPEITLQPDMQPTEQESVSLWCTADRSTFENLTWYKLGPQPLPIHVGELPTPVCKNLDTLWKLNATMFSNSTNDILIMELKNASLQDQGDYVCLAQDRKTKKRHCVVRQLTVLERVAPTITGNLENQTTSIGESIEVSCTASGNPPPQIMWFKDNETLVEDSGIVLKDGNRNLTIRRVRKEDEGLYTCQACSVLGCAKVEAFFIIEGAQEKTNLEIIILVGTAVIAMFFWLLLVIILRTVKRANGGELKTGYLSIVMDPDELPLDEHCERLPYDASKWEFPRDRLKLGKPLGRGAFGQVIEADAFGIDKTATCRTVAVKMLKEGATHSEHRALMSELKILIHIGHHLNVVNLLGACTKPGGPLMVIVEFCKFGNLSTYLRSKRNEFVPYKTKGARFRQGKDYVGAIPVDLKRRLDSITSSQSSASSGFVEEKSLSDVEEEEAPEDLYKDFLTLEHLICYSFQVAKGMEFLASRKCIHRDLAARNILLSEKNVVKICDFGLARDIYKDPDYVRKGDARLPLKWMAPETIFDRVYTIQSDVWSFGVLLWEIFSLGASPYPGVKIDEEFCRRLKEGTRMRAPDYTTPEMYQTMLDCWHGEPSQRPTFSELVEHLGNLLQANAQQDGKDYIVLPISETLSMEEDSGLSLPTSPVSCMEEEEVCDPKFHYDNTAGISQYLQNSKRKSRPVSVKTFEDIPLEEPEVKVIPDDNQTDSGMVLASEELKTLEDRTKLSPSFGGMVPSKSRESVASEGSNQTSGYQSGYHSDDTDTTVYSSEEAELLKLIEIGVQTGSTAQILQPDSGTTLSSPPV

inhibition at 10 µM (KDR (VEGFR2); [1])	inhibition at 10 µM (KDR (VEGFR2); [2])	inhibition at 10 µM (AURKA (Aurora A); [3])	inhibition at 10 µM (AURKA (Aurora A); [4])	inhibition at 10 µM (MAP4K4 (HGK); [5])	inhibition at 10 µM (MAP4K4 (HGK); [6])	SMILES
< 40%	8%	< 40%	-14%	40 to 80%	54%	CCn1ncc2c1C(C)CC(Nc1nc3c(-c4cc(F)c(F)c(F)c4)cccn3n1)C2 (stereo not drawn) [Example 49, (1-Ethyl-7-methyl-4,5,6,7-tetrahydro-1H-indazol-5-yl)-[8-(3,4,5-trifluoro-phenyl)-[1,2,4]triazolo[1,5-a]pyridine-2-yl]-amine]
< 40%	-10%	< 40%	8%	< 40%	-8%	CCn1nnc2c1CCC(Nc1nc3c(-c4ccc(F)cc4C)cccn3n1)C2 (stereo not drawn) [Example 51, (1-Ethyl-4,5,6,7-tetrahydro-1H-benzotriazol-5-yl)-[8-(4-fluoro-2-methyl-phenyl)-[1,2,4]triazolo[1,5-a]pyridine-2-yl]-amine]
< 40%	5%	< 40%	18%	< 40%	25%	CCc1nn(C)c2c1CCC(Nc1nc3c(-c4ccc(F)cc4C)cccn3n1)C2 (stereo not drawn) [Example 54, (3-Ethyl-1-methyl-4,5,6,7-tetrahydro-1H-indazol-6-yl)-[8-(4-fluoro-2-methyl-phenyl)-[1,2,4]triazolo[1,5-a]pyridine-2-yl]-amine]
< 40%	12%	< 40%	15%	40 to 80%	51%	CCn1ncc2c1CCC(Nc1nc3c(-c4ccc(F)cc4)cccn3n1)C2 (stereo not drawn) [Example 55, (1-Ethyl-4,5,6,7-tetrahydro-1H-indazol-5-yl)-[8-(4-fluoro-phenyl)-[1,2,4]triazolo[1,5-a]pyridine-2-yl]-amine]
< 40%	6%	< 40%	27%	40 to 80%	48%	CCn1ncc2c1CCC(Nc1nc3c(-c4ccccc4C)cccn3n1)C2 (stereo not drawn) [Example 56, (1-Ethyl-4,5,6,7-tetrahydro-1H-indazol-5-yl)-[8-(2-methyl-phenyl)-[1,2,4]triazolo[1,5-a]pyridine-2-yl]-amine]
< 40%	18%	< 40%	7%	40 to 80%	58%	CCn1ncc2c1CCC(Nc1nc3c(-c4ccccc4)cccn3n1)C2 (stereo not drawn) [Example 57, (1-Ethyl-4,5,6,7-tetrahydro-1H-indazol-5-yl)-(8-phenyl-[1,2,4]triazolo[1,5-a]pyridine-2-yl)-amine]
< 40%	-8%	< 40%	-21%	40 to 80%	57%	CCn1ncc2c1CCC(Nc1nc3c(-c4cccc(Cl)c4)cccn3n1)C2 (stereo not drawn) [Example 59, [8-(3-Chloro-phenyl)-[1,2,4]triazolo[1,5-a]pyridine-2-yl]-(1-ethyl-4,5,6,7-tetrahydro-1H-indazol-5-yl)-amine]
< 40%	8%	< 40%	29%	40 to 80%	48%	CCn1ncc2c1CCC(Nc1nc3c(-c4cccnc4)cccn3n1)C2 (stereo not drawn) [Example 63, (1-Ethyl-4,5,6,7-tetrahydro-1H-indazol-5-yl)-(8-pyridin-3-yl-[1,2,4]triazolo[1,5-a]pyridine-2-yl)-amine]
< 40%	15%	< 40%	6%	40 to 80%	49%	CCn1ncc2c1CCC(Nc1nc3c(-c4ccc(C)nc4)cccn3n1)C2 (stereo not drawn) [Example 67, (1-Ethyl-4,5,6,7-tetrahydro-1H-indazol-5-yl)-[8-(6-methyl-pyridin-3-yl)-[1,2,4]triazolo[1,5-a]pyridine-2-yl]-amine]
< 40%	18%	< 40%	39%	40 to 80%	42%	CCn1ncc2c1CCC(Nc1nc3c(-c4cnccc4OC)cccn3n1)C2 (stereo not drawn) [Example 68, (1-Ethyl-4,5,6,7-tetrahydro-1H-indazol-5-yl)-[8-(4-methoxy-pyridin-3-yl)-[1,2,4]triazolo[1,5-a]pyridine-2-yl]-amine]
< 40%	8%	< 40%	25%	< 40%	39%	CCn1ncc2c1CCC(Nc1nc3c(-c4cccnc4OC)cccn3n1)C2 (stereo not drawn) [Example 69, (1-Ethyl-4,5,6,7-tetrahydro-1H-indazol-5-yl)-[8-(2-methoxy-pyridin-3-yl)-[1,2,4]triazolo[1,5-a]pyridine-2-yl]-amine]
< 40%	12%	40 to 80%	51%	40 to 80%	56%	CCn1ncc2c1CCC(Nc1nc3c(-c4cncc(OC)c4)cccn3n1)C2 (stereo not drawn) [Example 70, (1-Ethyl-4,5,6,7-tetrahydro-1H-indazol-5-yl)-[8-(5-methoxy-pyridin-3-yl)-[1,2,4]triazolo[1,5-a]pyridine-2-yl]-amine]
< 40%	17%	40 to 80%	42%	< 40%	16%	CCn1ncc2c1CCC(Nc1nc3c(-c4ccc(OC)nc4)cccn3n1)C2 (stereo not drawn) [Example 71, (1-Ethyl-4,5,6,7-tetrahydro-1H-indazol-5-yl)-[8-(6-methoxy-pyridin-3-yl)-[1,2,4]triazolo[1,5-a]pyridine-2-yl]-amine]
